Reference: ChEMBL document CHEMBL5543122, “Discovery of HC-7366: An Orally Bioavailable and Efficacious GCN2 Kinase Activator” (J Med Chem, 2024)
Values after ≈ are worked out from the molar mass of the structure shown.

Tests used:
[1] = biological target: T1, Eukaryotic translation initiation factor 2-alpha kinase 3 (Homo sapiens, UniProt Q9NZJ5); assay: Inhibition of PEK in human MOLM16 cells; type: cell-based
T1 sequence (Q9NZJ5 whole entry): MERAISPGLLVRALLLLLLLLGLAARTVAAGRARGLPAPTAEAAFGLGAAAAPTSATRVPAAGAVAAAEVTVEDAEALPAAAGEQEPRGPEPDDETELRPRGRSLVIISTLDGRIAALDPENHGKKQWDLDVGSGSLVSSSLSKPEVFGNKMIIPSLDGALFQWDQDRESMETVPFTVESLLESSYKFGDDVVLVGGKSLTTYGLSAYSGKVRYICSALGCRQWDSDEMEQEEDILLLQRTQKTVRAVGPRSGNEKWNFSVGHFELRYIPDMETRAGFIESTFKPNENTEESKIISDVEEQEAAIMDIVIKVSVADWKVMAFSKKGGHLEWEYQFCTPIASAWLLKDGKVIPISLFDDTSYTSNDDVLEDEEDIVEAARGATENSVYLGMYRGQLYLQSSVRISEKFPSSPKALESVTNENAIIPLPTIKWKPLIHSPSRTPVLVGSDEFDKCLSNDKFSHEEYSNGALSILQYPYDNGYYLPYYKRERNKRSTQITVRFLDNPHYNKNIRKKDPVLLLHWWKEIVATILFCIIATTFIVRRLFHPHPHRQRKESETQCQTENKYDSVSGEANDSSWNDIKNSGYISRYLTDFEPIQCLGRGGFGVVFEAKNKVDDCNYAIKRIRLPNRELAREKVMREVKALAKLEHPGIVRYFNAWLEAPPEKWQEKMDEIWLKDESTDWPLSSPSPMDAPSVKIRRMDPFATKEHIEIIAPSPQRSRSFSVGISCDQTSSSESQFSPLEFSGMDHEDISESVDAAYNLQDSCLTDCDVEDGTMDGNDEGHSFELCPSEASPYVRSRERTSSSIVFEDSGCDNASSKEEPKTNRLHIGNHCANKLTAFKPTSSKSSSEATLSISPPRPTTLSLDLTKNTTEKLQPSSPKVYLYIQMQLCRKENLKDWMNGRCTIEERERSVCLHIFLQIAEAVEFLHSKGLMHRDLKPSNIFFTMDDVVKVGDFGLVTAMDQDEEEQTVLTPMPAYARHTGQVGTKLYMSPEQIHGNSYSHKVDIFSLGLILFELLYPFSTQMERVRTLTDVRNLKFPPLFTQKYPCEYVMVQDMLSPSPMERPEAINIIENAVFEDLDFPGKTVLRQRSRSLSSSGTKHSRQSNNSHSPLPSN

HT-1080 [2] = assay: Antitumor activity against human HT-1080 cells xenografted in BALB/c nude mouse assessed as mean tumor growth inhibition at 0.3 mg/kg administered twice a day for 14 days; type: functional; conditions: HT-1080, 336 h, time 14 day, read-out: TGI
physchem [3] = conditions: FaSSIF
Description: Thermodynamic solubility in FaSSIF at 1 mg incubated for 24 hrs by UPLC-MS/MS analysis

physchem [4] = conditions: SGF
Description: Thermodynamic solubility in SGF at 1 mg incubated for 24 hrs by UPLC-MS/MS analysis

[5] = Antitumor activity against human MOLM16 cells xenografted in BALB/c nude mouse assessed as tumor growth inhibition at 1 mg/kg administered twice a day for 17 days; type: functional, MOLM-16; conditions: MOLM16, 408 h, time 17 day, read-out: TGI
[6] = Unbound fraction in Sprague-Dawley rat plasma at 1 mg/kg, iv measured upto 24 hrs; type: ADME, organism-based
[7] = Volume of distribution at steady state in Sprague-Dawley rat at 1 mg/kg, iv measured upto 24 hrs; type: ADME, organism-based; conditions: in vivo, read-out: Vdss
[8] = Toxicity in BALB/c nude mouse xenografted with human MOLM16 cells assessed as change in body weight at 0.3 to 3 mg/kg administered twice a day for 17 days; type: organism-based; conditions: in vivo, 408 h, dose 0.3-3 mg/kg, time 17 day
[9] = biological target: Receptor-interacting serine/threonine-protein kinase 3 (Homo sapiens, UniProt Q9Y572); assay: Inhibition of RIPK3 in human MOLM16 cells; type: cell-based
[10] = Unbound volume of distribution at steady state in Sprague-Dawley rat at 1 mg/kg, iv measured upto 24 hrs; type: ADME, organism-based; conditions: in vivo
[11] = Half-life in BALB/c mouse at 3 mg/kg, po and 1 mg/kg, iv measured upto 24 hrs; type: ADME, organism-based; conditions: in vivo
[12] = Intrinsic clearance in rat hepatocytes assessed per 10^4 cells at 1 uM measured upto 120 mins by UPLC-MS/MS analysis; type: ADME, cell-based, Hepatocyte; conditions: 2 h
[13] = Unbound Cmax in BALB/c mouse at 3 mg/kg, po and 1 mg/kg, iv measured upto 24 hrs; type: ADME, organism-based; conditions: in vivo
[14] = biological target: Mitogen-activated protein kinase kinase kinase 20 (Homo sapiens, UniProt Q9NYL2); assay: Inhibition of ZAK in human MOLM16 cells; type: cell-based
[15] = Oral bioavailability in BALB/c mouse at 3 mg/kg measured upto 24 hrs; type: ADME, organism-based; conditions: in vivo
[16] = Cmax in Sprague-Dawley rat at 3 mg/kg, po measured upto 24 hrs; type: ADME, organism-based; conditions: in vivo
[17] = Unbound clearance in BALB/c mouse plasma at 3 mg/kg, po and 1 mg/kg, iv measured upto 24 hrs; type: ADME, organism-based; conditions: in vivo
[18] = Cmax in BALB/c mouse at 3 mg/kg, po and 1 mg/kg, iv measured upto 24 hrs; type: ADME, organism-based; conditions: in vivo
[19] = Antitumor activity against human MOLM16 cells xenografted in BALB/c nude mouse assessed as tumor growth inhibition at 0.3 mg/kg administered twice a day for 17 days; type: functional, MOLM-16; conditions: MOLM16, 408 h, time 17 day, read-out: TGI
[20] = Toxicity in BALB/c nude mouse xenografted with human HT-1080 cells assessed as change in body weight at 0.3 to 3 mg/kg administered twice a day for 14 days; type: organism-based; conditions: in vivo, 336 h, dose 0.3-3 mg/kg, time 14 day
[21] = biological target: T1, Eukaryotic translation initiation factor 2-alpha kinase 3; assay: Activation of PERK in HEK293 cells transfected with ATF4 response element preincubated for 30 mins followed by tunicamycin addition and measured after 6 hrs by One-Glo reagent based plate reader assay; type: cell-based
HT-1080 [22] = assay: Antitumor activity against human HT-1080 cells xenografted in BALB/c nude mouse assessed as mean tumor growth inhibition at 1 mg/kg administered twice a day for 14 days; type: functional; conditions: HT-1080, 336 h, time 14 day, read-out: TGI
[23] = Unbound AUC in BALB/c mouse at 3 mg/kg, po measured upto 24 hrs; type: ADME, organism-based; conditions: in vivo
[24] = Unbound volume of distribution at steady state in BALB/c mouse at 3 mg/kg, po and 1 mg/kg, iv measured upto 24 hrs; type: ADME, organism-based; conditions: in vivo
HT-1080 [25] = assay: Antitumor activity against human HT-1080 cells xenografted in BALB/c nude mouse assessed as mean tumor growth inhibition at 3 mg/kg administered twice a day for 14 days; type: functional; conditions: HT-1080, 336 h, time 14 day, read-out: TGI
[26] = Protein binding in HEK293 cells assessed as free fraction; type: ADME, cell-based; conditions: human
[27] = Apparent permeability across apical to basolateral in human Caco-2 cells at 5 uM measured after 120 mins by UPLC-MS/MS analysis
[28] = Intrinsic clearance in human hepatocytes assessed per 10^4 cells at 1 uM measured upto 120 mins by UPLC-MS/MS analysis; type: ADME, cell-based, Hepatocyte; conditions: 2 h
[29] = Volume of distribution at steady state in BALB/c mouse at 3 mg/kg, po and 1 mg/kg, iv measured upto 24 hrs; type: ADME, organism-based; conditions: in vivo

Sequence of Receptor-interacting serine/threonine-protein kinase 3 (Q9Y572 whole entry): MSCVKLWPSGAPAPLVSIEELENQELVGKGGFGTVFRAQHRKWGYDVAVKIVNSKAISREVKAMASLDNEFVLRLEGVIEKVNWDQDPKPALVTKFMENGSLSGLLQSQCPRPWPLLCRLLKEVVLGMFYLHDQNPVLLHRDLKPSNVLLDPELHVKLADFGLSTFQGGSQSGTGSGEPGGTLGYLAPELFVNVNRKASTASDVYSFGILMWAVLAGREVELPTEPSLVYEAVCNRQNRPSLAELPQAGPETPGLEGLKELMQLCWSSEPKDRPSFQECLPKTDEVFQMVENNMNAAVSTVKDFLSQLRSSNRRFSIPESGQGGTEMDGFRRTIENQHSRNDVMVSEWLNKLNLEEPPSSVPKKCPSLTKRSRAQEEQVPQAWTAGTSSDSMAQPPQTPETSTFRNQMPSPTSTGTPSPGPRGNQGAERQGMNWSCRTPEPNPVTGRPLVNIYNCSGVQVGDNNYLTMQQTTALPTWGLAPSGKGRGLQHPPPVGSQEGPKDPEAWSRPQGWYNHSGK
Sequence of Mitogen-activated protein kinase kinase kinase 20 (Q9NYL2 whole entry): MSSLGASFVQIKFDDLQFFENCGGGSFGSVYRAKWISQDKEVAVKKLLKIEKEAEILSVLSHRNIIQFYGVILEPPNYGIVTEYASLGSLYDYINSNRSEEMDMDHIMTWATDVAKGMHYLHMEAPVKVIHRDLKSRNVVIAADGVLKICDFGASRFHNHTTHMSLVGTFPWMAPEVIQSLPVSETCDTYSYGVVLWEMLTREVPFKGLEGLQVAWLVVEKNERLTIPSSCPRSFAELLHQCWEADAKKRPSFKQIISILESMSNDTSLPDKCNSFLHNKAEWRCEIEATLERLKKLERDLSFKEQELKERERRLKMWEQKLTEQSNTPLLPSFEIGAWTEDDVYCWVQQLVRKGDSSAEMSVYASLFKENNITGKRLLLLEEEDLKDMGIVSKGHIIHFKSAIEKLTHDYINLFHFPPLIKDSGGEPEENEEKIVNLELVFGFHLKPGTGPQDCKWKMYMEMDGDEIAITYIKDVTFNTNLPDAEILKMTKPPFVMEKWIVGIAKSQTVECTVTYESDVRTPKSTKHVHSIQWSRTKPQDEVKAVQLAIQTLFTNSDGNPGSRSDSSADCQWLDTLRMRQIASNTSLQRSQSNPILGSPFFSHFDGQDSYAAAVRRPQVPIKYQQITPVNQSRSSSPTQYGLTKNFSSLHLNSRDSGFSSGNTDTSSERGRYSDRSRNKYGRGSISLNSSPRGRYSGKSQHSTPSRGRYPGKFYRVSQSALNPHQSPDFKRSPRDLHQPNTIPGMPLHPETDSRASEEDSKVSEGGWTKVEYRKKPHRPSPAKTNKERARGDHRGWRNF

## CNC(=O)c1ncn2cc(-c3c(F)ccc(NS(=O)(=O)c4cc(Cl)cnc4OC)c3F)ncc12
[1]
  IC50: 5.2 µM
HT-1080 [2]
  inhibition in vivo at 0.3 mg/kg: 18%
Physchem [3]
  solubility thermodynamic at 24 h: 1.8 µM (≈ 0.916 µg/mL)
Physchem [4]
  solubility thermodynamic at 24 h: 0.89 µM (≈ 0.453 µg/mL)
[5]
  inhibition in vivo at 1 mg/kg: 97%
[6]
  fraction unbound at 24 h: 0.001
[7]
  Vd: 0.093 L/kg
[8]
  Activity: Non-Toxic
[9]
  IC50: 9 µM
[10]
  fVdss: 130 L/kg
[11]
  half-life: 10 h
[12]
  CLH: 3.5 µL/min
[13]
  fCmax: 52 nM
[14]
  IC50: 0.047 µM
[15]
  F: 66%
[16]
  Cmax: 10.1 µM
[17]
  CL free: 4.2 L/h/kg
[18]
  Cmax: 26.1 µM
[19]
  inhibition in vivo at 0.3 mg/kg: 66%
[20]
  Activity: Non-Toxic
[21]
  EC50: 6.9 µM
HT-1080 [22]
  inhibition in vivo at 1 mg/kg: 80%
[23]
  fAUC: 130 nM·h
[24]
  fVdss: 60 L/kg
HT-1080 [25]
  inhibition in vivo at 3 mg/kg: 84%
[26]
  fraction unbound: 0.35
[27]
  Papp A→B at 2 h, 5 µM: 97 nm/s
[28]
  CLH: 4.7 µL/min
[29]
  Vdss: 0.12 L/kg
